Reference: PMC9043997, “LEAP2 reduces postprandial glucose excursions and ad libitum food intake in healthy men” (Cell Reports Medicine, 2022)
Where a SMILES comes first, the peptide text is derived from it. Bridges are numbered along the chain shown (N, C = ends).

Key:
[1] = tested on: wild-type mice; assay: Fasting insulin and plasma glucose after subcutaneous LEAP2 in fasted wild-type mice; format: in vivo, mouse; conditions: fasted female wild-type mice, LEAP2 3 μmol/kg subcutaneous
Experimental: For fasting insulin and glucose concentrations, females (15 weeks of age) were used. Mice were housed four mice per cage. On the experimental day, mice were fasted from four hours before subcutaneous administration until end of the study and randomized by body weight into either vehicle (saline) or LEAP2 dosing (3 μmol/kg). Blood samples were collected at timepoints −60, 20 and 60 min from the retro-orbital vein plexus using EDTA-coated capillary tubes. Plasma was subsequently separated from the blood after centrifugation (3,000 g, 4°C, 5 min) and stored at −80°C until analysis. Blood glucose was measured at timepoints −60, 20 and 60 min from eye blood and at timepoint 0 min from a tail puncture by use of the same glucometer (Contour ™xt meter; Ascensia Diabetes Care, Basel, Switzerland). Mouse plasma insulin concentrations were determined by use of a Mouse/Rat Insulin Kit (cat: K152BZC-1; Meso Scale Discovery, Gaithersburg, Maryland, USA). The assay was performed according to the manufacturer’s instructions, and the plate was measured by use of MESO QuickPlex SQ 120.

[2] = Pharmacokinetic parameters of exogenous LEAP2 in healthy men (one-compartment model); format: in vivo, human
Experimental: Eight healthy men, recruited among participants in the placebo-controlled, crossover study, were included in an additional clinical study investigating the kinetic parameters of exogenous LEAP2. Each participant underwent a single experimental day with intravenous infusion of LEAP2 (10 min at a rate of ∼101 pmol/kg/min followed by 110 min at ∼25 pmol/kg/min) (see Figure S1B for an overview of the clinical study design). […] Fasting schedule for participants and all instructions from 48 h prior to the experimental day were similar to the placebo-controlled, crossover study. […] LEAP2 infusion was started at timepoint 0 min and discontinued after 120 min. Blood samples were drawn every 15 min from timepoint −30 to 270 min and, additionally, at timepoints 118, 122, 124, 127 and 130 min. Plasma glucose was measured bedside every 15 min from timepoint −30 to 180 min and every 30 min from timepoint 180 to 270 min with a mean concentration of 4.85 ± 0.02 mmol/L. For analytical procedures related to plasma glucose and LEAP2 concentrations, please see the section “Human plasma analyses”. Every 30 min from time −30 to 270 min, participants rated appetite-related sensations on 100 mm VAS[34] with a score (median (interquartile range)) for hunger of 72 (59–79) mm, prospective food consumption 73 (65–82) mm, satiety 22 (14–33) mm, fullness 21 (12–31) mm, comfort 78 (72–90) mm, thirst 78 (71–89) mm and nausea 3.0 (0–9.0).
We constructed and applied a pharmacokinetic model to the data using the software Monolix (Monolix version 2019R1; Lixoft SAS, Antony, France). The parameters were estimated using the Stochastic Approximation EM algorithm.[22] The one-compartment model assumed input from both endogenous LEAP2 secretion and the exogenous LEAP2 infusion assuming that LEAP2 kinetics followed a single-exponential elimination. We assumed that the endogenous production of LEAP2 was constant i.e. not suppressed during infusion of exogenous LEAP2. This model probably represents a simplification of the actual physiological LEAP2 kinetics, but the data fitted well to model predictions.

[3] = tested on: healthy men; assay: Visual analog scale ratings of appetite-related sensations, crossover study; format: in vivo, human; conditions: healthy men n = 20, iv LEAP2 ~25 pmol/kg/min, 100 mm VAS, paired t test of AUC
Experimental: Sensations of hunger, satiety, prospective food consumption, fullness, nausea, comfort and thirst were rated on 100 mm VAS at timepoints −35, 0, 30, 75, 105, 135, 165, 195, 225 and 255 min and after the ad libitum meal.[34] After eating, participants evaluated the ad libitum meal by VAS with a score (median (interquartile range)) for appearance of 55 (36–72) mm, taste 65 (42–76) mm, off-notes 17 (7–31) mm, smell 63 (50–72) mm and overall impression 59 (45–73) mm indicating a moderate evaluation of the meal.

[4] = tested on: healthy men; assay: Ad libitum meal test at the end of the infusion period; format: in vivo, human; conditions: healthy men n = 20, iv LEAP2 ~25 pmol/kg/min
Experimental: The infusion was terminated when participants had finished eating.
Unless otherwise stated, results are presented as mean ± SEM. Baseline values were calculated as a mean of timepoints −35, −10 and 0 min or, when only available −10 and 0 min. Baseline values for the postprandial period were calculated as a mean of timepoint 60 min. Calculations of AUC were based on the trapezoidal rule. AUC values are reported for the period 0 to 255 min. To assess the fasting and postprandial periods separately, AUC values are reported for the periods 0 to 60 min and 60 to 255 min, respectively. Student’s paired t test was used to test for differences in baseline, peak, time to peak, AUC and mean values and ad libitum food intake in men. Indirect calorimetry and thermal imaging data were fitted to a repeated-measures mixed effects model with the intervention and timepoints as independent variables with interaction and Geisser-Greenhouse correction. Šidák’s post hoc test was used to compare LEAP2 to placebo for each timepoint. For analysis of endogenous LEAP2 concentrations in response to a liquid mixed meal test, postprandial data during placebo infusion were fitted to a repeated-measures mixed effects model with time as a fixed effect and the individual participant as a random effect with Geisser-Greenhouse correction. Dunnett’s post hoc test was used to compare endogenous LEAP2 concentrations at each timepoint (75 to 255 min) to the postprandial baseline. Mouse plasma glucose, food intake and insulin data were analyzed by a repeated-measures two-way ANOVA with Šidák’s post hoc test. Statistical analyses were carried out using GraphPad Prism v9.0.0 and v9.1.1 (GraphPad Software, San Diego, California). A two-sided p value < 0.05 was considered statistically significant. The population size calculation was based on data from a previous study investigating the reproducibility of an ad libitum meal in healthy men.[41] Eighteen participants were needed to detect a difference of minimum 500 kJ in ad libitum food intake with a with-in subject difference of 739 kJ, a power of 80% and the above-mentioned significance level. To ensure sufficient power, 20 participants were included.

Structure (SMILES): CC[C@H](C)[C@@H]1NC(=O)[C@@H]2CSSC[C@@H](C(=O)N[C@@H](CO)C(=O)N[C@@H](CC(C)C)C(=O)N[C@@H](CO)C(=O)N[C@H](C(=O)N[C@@H](C)C(=O)N[C@@H](CCC(N)=O)C(=O)N[C@@H](CCC(=O)O)C(=O)O)C(C)C)NC(=O)[C@H](CCCNC(=N)N)NC(=O)[C@H](CCCNC(=N)N)NC(=O)[C@H](CCCCN)NC(=O)[C@H](CCCNC(=N)N)NC(=O)[C@H](CSSC[C@H](NC(=O)[C@H](CO)NC(=O)[C@H](C)NC(=O)CNC(=O)[C@@H](NC(=O)[C@@H]3CCCN3C(=O)[C@H](CCCNC(=N)N)NC(=O)[C@H](CC(C)C)NC(=O)[C@H](CO)NC(=O)[C@@H](NC(=O)CNC(=O)[C@H](CCCNC(=N)N)NC(=O)[C@H](Cc3c[nH]c4ccccc34)NC(=O)[C@H](Cc3ccccc3)NC(=O)[C@@H]3CCCN3C(=O)[C@@H](NC(=O)[C@@H](N)CCSC)[C@@H](C)O)C(C)C)[C@@H](C)CC)C(=O)N[C@@H](CCCNC(=N)N)C(=O)N[C@@H](CC(=O)O)C(=O)N[C@@H](CC(=O)O)C(=O)N[C@@H](CO)C(=O)N[C@@H](CCC(=O)O)C(=O)N2)NC(=O)[C@H](CC(C)C)NC(=O)[C@H](CCCNC(=N)N)NC(=O)[C@H]([C@@H](C)O)NC1=O [LEAP2, liver-expressed antimicrobial peptide 2] (H-MTPFWRGVSLRPIGASCRDDSECITRLCRKRRCSLSVAQE-OH; disulfide 17-28, 23-33 (inferred); N-terminus and C-terminus assumed)
- fasting plasma glucose concentrations vs vehicle [1]: did not affect fasting plasma glucose concentrations
- fasting insulin concentrations vs vehicle ([1]; 20 and 60 min): no effect
- half-life of LEAP2 ([2]; healthy men n = 8, iv 10 min at ~101 pmol/kg/min then 110 min at ~25 pmol/kg/min, plasma, radioimmunoassay, one-compartment model (Monolix)): ~9 min
- endogenous production rate of LEAP2 ([2]; healthy men n = 8, one-compartment model assuming constant endogenous production): 1.9 ± 0.14 nmol/min
- Vd ([2]; male, human, plasma, healthy men n = 8, iv 10 min at ~101 pmol/kg/min then 110 min at ~25 pmol/kg/min, 150-min wash-out, one-compartment model (Monolix), read-out: volume of distribution of LEAP2): 14 ± 5.3 L
- clearance ([2]; male, human, plasma, healthy men n = 8, iv 10 min at ~101 pmol/kg/min then 110 min at ~25 pmol/kg/min, one-compartment model (Monolix), read-out: metabolic clearance rate of LEAP2): 860 ± 170 mL/min
- half-life ([2]; male, human, healthy men n = 8, iv 10 min at ~101 pmol/kg/min then 110 min at ~25 pmol/kg/min, plasma, radioimmunoassay, one-compartment model (Monolix)): 9.1 ± 2.5 min
- VAS ratings of hunger, satiety, prospective food consumption, fullness, nausea, comfort, or thirst, LEAP2 vs placebo [3]: no differences
- mean difference in ad libitum food intake per kg body weight (placebo vs LEAP2) ([4]; 95% CI, p = 0.0029): 5.4 kJ/kg
- mean difference in total ad libitum food intake (placebo vs LEAP2) ([4]; 95% CI, p = 0.0041): 432 kJ
- mean difference in duration of the ad libitum meal (placebo vs LEAP2) ([4]; 95% CI, p = 0.0303): 1.5 min
- reduction in energy intake during ad libitum meal compared with placebo ([4]; pasta Bolognese served 260 min after start of infusion): ~12%
